The target of data set [1] is T1, HCV polymerase (NS5B570n-Con1) (Hepatitis C virus genotype 1b, UniProt Q9WMX2).
T1 construct: contains a 21 amino acid deletion at the C-terminus relative to the full-length HCV polymerase; 6-histidine (N); made in house; host or cells: E. coli strain BL21(DE) pLysS, plasmid pET 17b
Nature of the data set: HCV NS5B RNA polymerase activity assay (incorporation of radiolabeled UTP). Format: biochemical, HCV Con1 strain. As to the method: The enzymatic activity of HCV polymerase (NS5B570n-Con1) was measured as the incorporation of radiolabeled nucleotide monophosphates into acid insoluble RNA products. Unincorporated radiolabeled substrate was removed by filtration and scintillant was added to the washed and dried filter plate containing radiolabeled RNA product. The amount of RNA product generated by NS5B570-Con1 at the end of the reaction was directly proportional to the amount of light emitted by the scintillant.
The N-terminal 6-histidine tagged HCV polymerase, derived from HCV Con1 strain, genotype 1b (NS5B570n-Con1) contains a 21 amino acid deletion at the C-terminus relative to the full-length HCV polymerase and was purified from E. coli strain BL21(DE) pLysS. The construct, containing the coding sequence of HCV NS5B Con1 (GenBank accession number AJ242654) was inserted into the plasmid construct pET 17b, downstream of a T7 promoter expression cassette and transformed into E. coli. A single colony was grown overnight as a starter culture and later used inoculate 10 L of LB media supplemented with 100 μg/mL ampicillin at 37° C. Protein expression was induced by the addition of 0.25 mM isopropyl-β-D-thiogalactopyranoside (IPTG) when optical density at […] of the culture was between 0.6 and 0.8 and cells were harvested after 16 to 18 h at 30° C. NS5B570n-Con1 was purified to homogeneity using a three-step protocol including subsequent column chromatography on Ni-NTA, SP-Sepharose HP and Superdex 75 resins.
Each 50 μL enzymatic reaction contained 20 nM RNA template derived from the complementary sequence of the Internal Ribosome Entry Site (cIRES), 20 nM NS5B570n-Con1 enzyme, 0.5 μCi of tritiated UTP (Perkin Elmer catalog no. TRK-412; specific activity: 30 to 60 Ci/mmol; stock solution concentration from 7.5×10^−5 M to 20.6×10^−6 M), 1 μM each ATP, CTP, and GTP, 40 mM Tris-HCl pH 8.0, 40 mM NaCl, 4 mM DTT (dithiothreitol), 4 mM MgC12, and 5 μL of compound serial diluted in DMSO. Reaction mixtures were assembled in 96-well filter plates (cat #MADVNOB, Millipore Co.) and incubated for 2 h at 30° C. Reactions were stopped by addition of 10% final (v/v) trichloroacetic acid and incubated for 40 min at 4° C. Reactions were filtered, washed with 8 reaction volumes of 10% (v/v) trichloroacetic acetic acid, 4 reaction volumes of 70% (v/v) ethanol, air dried, and 25 μL of scintillant (Microscint 20, Perkin-Elmer) was added to each reaction well.
The amount of light emitted from the scintillant was converted to counts per minute (CPM) on a Topcount® plate reader (Perkin-Elmer, Energy Range: Low, Efficiency Mode Normal, Count Time: 1 min, Background Subtract: none, Cross talk reduction: Off).
Data was analyzed in Excel® (Microsoft) and ActivityBase® (Idbs®). The reaction in the absence of enzyme was used to determine the background signal, which was subtracted from the enzymatic reactions. Positive control reactions were performed in the absence of compound, from which the background corrected activity was set as 100% polymerase activity. All data was expressed as a percentage of the positive control. The compound concentration at which the enzyme-catalyzed rate of RNA synthesis was reduced by 50% (IC50) was calculated by fitting equation (i) to the data where“Y” […]

The nature of another data set: in vitro. The note with it: human.
In data set [2] the test system is HCV replicon cells (2209-23), genotype 1b replicon in Huh7 cells. Nature of the data set: HCV replicon assay (Renilla luciferase reporter). Format: cell-based, HCV genotype 1b. Particulars: Hepatitis C virus, Huh-7, 72 h; 2209-23 cells, three days incubation.
In a further data set the test system is HCV. The note with it: cited from earlier work.

Consider `CC(C)(C)c1nc(-n2ccc(=O)[nH]c2=O)c2ncc(-c3ccc(NS(C)(=O)=O)cc3)cc2n1` [Compound I-5, N-{4-[2-tert-Butyl-4-(2,4-dioxo-3,4-dihydro-2H-pyrimidin-1-yl)-pyrido[3,2-d]pyrimidin-7-yl]-phenyl}-methanesulfonamide], for which half-maximal inhibition in data set [1] (IC50) was put at 5.5 nM. Compound `CC(C)(C)c1nc(-n2ccc(=O)[nH]c2=O)c2ccc(-c3ccc(NS(C)(=O)=O)cc3)cc2n1` [Compound I-3, N-{4-[2-tert-Butyl-4-(2,4-dioxo-3,4-dihydro-2H-pyrimidin-1-yl)-quinazolin-7-yl]-phenyl}-methanesulfonamide] came in with a melting point of 186 to 190 °C. The compound also gave a CC50 at 3 days in the data set “in vitro” of 44000 nM. This compound also registered an IC50 in data set [2] of 17 nM. Moreover, the concentration for half-maximal inhibition (IC50) in data set [1] was less than 0.1 nM.

As for `CC(C)(C)c1nc(-c2ccc(O)[nH]c2=O)c2ccc(-c3ccc(NS(C)(=O)=O)cc3)cc2n1` [Compound I-4, N-{4-[2-tert-Butyl-4-(6-hydroxy-2-oxo-1,2-dihydro-pyridin-3-yl)-quinazolin-7-yl]-phenyl}-methanesulfonamide], in data set [1], it took 2.4 nM to reach half-maximal inhibition (IC50). Compound `CC(C)(C)c1nc(-c2ccc(O)[nH]c2=O)c2ccc(N3CC[C@H](CNS(C)(=O)=O)C3)cc2n1` [Compound I-2] came in with a melting point of 205.8 to 207.9 °C. The same compound gave an IC50 in data set [1] of 3.5 nM. `Cc1ccc(-c2nc(C(C)(C)C)nc3cc(-c4ccc(NS(C)(=O)=O)cc4)cnc23)c(=O)[nH]1` [Compound I-6] registered an IC50 in data set [1] of 9.7 nM. With `NC(=O)c1ncn([C@@H]2O[C@H](CO)[C@@H](O)[C@H]2O)n1` [ribavirin, 1-((2R,3R,4S,5R)-3,4-Dihydroxy-5-hydroxymethyl-tetrahydro-furan-2-yl)-1H-[1,2,4]triazole-3-carboxylic acid amide], the “patients with serum amino transferase levels reduced to normal” value in the data set on HCV (monotherapy) is reported as 40%. In addition, in the data set with HCV (sole treatment / monotherapy), the “effect on serum levels of HCV-RNA” value is recorded as “does not lower serum levels of HCV-RNA”.

The values above are taken from patent US8329712B2, “Heterocyclic antiviral compounds” (Roche Palo Alto LLC, priority 2010, dated 2012).
